# Assay results reported in US20100056524A1, “Compound” (priority 2008, published 2010).
# Where two headings read alike, the source gives them in different places.
# Columns and labels:
# [1] = molecular target: T1, PRAK (Homo sapiens, UniProt Q8IW41); assay: PRAK protein kinase assay; type: biochemical; conditions: for remaining activity at 10 µM: 10 μM compound; for residual kinase activity PRAK: 1 μm compound
# T1 construct: All protein kinases were of human origin and encoded full length proteins, unless indicated otherwise; made in house
# T1 sequence (Q8IW41 1-473): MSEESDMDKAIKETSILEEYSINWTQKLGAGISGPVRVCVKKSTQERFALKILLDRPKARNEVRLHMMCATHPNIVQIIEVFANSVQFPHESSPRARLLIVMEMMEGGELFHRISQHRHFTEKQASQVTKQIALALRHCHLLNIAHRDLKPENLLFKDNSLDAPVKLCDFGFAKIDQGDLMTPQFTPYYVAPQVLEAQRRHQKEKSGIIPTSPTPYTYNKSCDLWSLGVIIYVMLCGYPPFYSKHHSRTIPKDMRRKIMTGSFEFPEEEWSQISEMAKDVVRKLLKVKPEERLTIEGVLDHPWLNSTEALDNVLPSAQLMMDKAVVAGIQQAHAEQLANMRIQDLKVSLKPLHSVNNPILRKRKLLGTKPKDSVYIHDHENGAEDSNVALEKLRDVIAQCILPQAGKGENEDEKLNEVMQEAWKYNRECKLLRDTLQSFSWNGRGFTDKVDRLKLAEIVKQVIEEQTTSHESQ
# Text: (§1) All protein kinases were of human origin and encoded full length proteins, unless indicated otherwise. They were either expressed as glutathione S-transferase (GST) fusion proteins in Escherichia Coli or as hexahistidine (His6)-tagged proteins in insect Sf21 cells. GST fusion proteins were purified by affinity chromatography on glutathione-Sepharose, and His6-tagged proteins on nickel/nitriloacetate-agarose. The procedures for expressing some of the protein kinases used herein have been detailed previously.^8,9 The following sections outline the DNA vectors synthesised and the procedures used to express and purifying protein kinases that have not been reported previously.
# (§2) All assays (25.5 μl) were carried out at room temperature (21° C.) and were linear with respect to time and enzyme concentration under the conditions used. Assays were performed for 30 min using Multidrop Micro reagent dispensers (Thermo Electron Corporation, Waltham, Mass. 02454, USA) in a 96-well format. The concentration of magnesium acetate in the assays was 10 mM and the [γ-33P] ATP (800 cpm/pmol) was used at 5, 20 or 50 μM as indicated, in order to be at or below the Km for ATP for each enzyme. Protein kinases assayed at 5 μM ATP were: —ERK1, ERK8, PKBα, MARK3, Aurora C. Protein kinases assayed at 20 μM ATP were: —JNK1, PDK1, CHK1, CHK2, CDK2 and Aurora B. Protein kinases assayed at 50 μM ATP were: —MNK2, IKKepsilon and TBK1.
# (§3) The assays were initiated with MgATP, stopped by addition of 5 μl of 0.5 M orthophosphoric acid and spotted on to P81 filterplates using a unifilter harvester (PerkinElmer, Boston, Mass. 02118, USA). The IC50 values of inhibitors were determined after carrying out assays at 10 different concentrations of each compound.
# (§4) Unless stated otherwise, enzymes were diluted in 50 mM Tris/HCl pH 7.5, 0.1 mM EGTA, 1 mg/ml BSA, 0.1% (v/v) 2-mercaptoethanol and assayed in 50 mM Tris/HCl pH 7.5, 0.1 mM EGTA, 0.1% (v/v) 2-mercaptoethanol.
# [2] = molecular target: T2, CAMKKb (Homo sapiens, UniProt Q96RR4); assay: CAMKKb protein kinase assay; type: biochemical; conditions: for remaining activity at 10 µM: 10 μM compound; for residual kinase activity CAMKKb: 1 μm compound
# T2 construct: All protein kinases were of human origin and encoded full length proteins, unless indicated otherwise; made in house
# Text: as §1, §2, §3, §4
# [3] = molecular target: T3, CAMK1 (Homo sapiens, UniProt Q14012); assay: CAMK1 protein kinase assay; type: biochemical; conditions: for remaining activity at 10 µM: 10 μM compound; for residual kinase activity CAMK1: 1 μm compound
# T3 construct: All protein kinases were of human origin and encoded full length proteins, unless indicated otherwise; made in house
# Text: as §1, §2, §3, §4
# [4] = molecular target: T4, PLK1 (Homo sapiens, UniProt P53350); assay: PLK1 protein kinase assay; type: biochemical; conditions: for remaining activity at 10 µM: 10 μM compound; for residual kinase activity PLK1: 1 μm compound
# T4 construct: All protein kinases were of human origin and encoded full length proteins, unless indicated otherwise; made in house
# Text: as §1, §2, §3, §4
# [5] = system: AMPK; assay: AMPK protein kinase assay; type: biochemical, human; conditions: for residual kinase activity: AMPK
# Text: as §1, §2, §3, §4
# [6] = system: CK1; assay: CK1 protein kinase assay; type: biochemical, human; conditions: for residual kinase activity: CK1
# Text: as §1, §2, §3, §4
# [7] = molecular target: T5, NEK2a (Homo sapiens, UniProt P51955); assay: NEK2a protein kinase assay; type: biochemical; conditions: for remaining activity at 10 µM: 10 μM compound; for residual kinase activity NEK2a: 1 μm compound
# T5 construct: All protein kinases were of human origin and encoded full length proteins, unless indicated otherwise; made in house
# T5 sequence (P51955 1-445): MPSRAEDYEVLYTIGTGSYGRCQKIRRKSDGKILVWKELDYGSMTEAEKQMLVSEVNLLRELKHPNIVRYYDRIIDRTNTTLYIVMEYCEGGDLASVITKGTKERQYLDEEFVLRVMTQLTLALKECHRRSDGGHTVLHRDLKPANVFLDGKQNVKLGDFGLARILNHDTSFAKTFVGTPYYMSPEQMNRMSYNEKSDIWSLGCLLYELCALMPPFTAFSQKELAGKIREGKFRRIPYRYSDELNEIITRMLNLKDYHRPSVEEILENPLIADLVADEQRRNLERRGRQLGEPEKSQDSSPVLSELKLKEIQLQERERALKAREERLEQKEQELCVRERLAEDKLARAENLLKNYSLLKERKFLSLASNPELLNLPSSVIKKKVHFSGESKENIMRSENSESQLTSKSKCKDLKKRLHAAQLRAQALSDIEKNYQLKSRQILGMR
# Text: as §1, §2, §3, §4
# [8] = molecular target: T6, NEK6 (Homo sapiens, UniProt Q9HC98); assay: NEK6 protein kinase assay; type: biochemical; conditions: for remaining activity at 10 µM: 10 μM compound; for residual kinase activity NEK6: 1 μm compound
# T6 construct: All protein kinases were of human origin and encoded full length proteins, unless indicated otherwise; made in house
# Text: as §1, §2, §3, §4
# [9] = molecular target: T7, Src (Homo sapiens, UniProt P12931); assay: Src protein kinase assay; type: biochemical; conditions: for remaining activity at 10 µM: 10 μM compound; for residual kinase activity Src: 1 μm compound
# T7 construct: All protein kinases were of human origin and encoded full length proteins, unless indicated otherwise; made in house
# Text: as §1, §2, §3, §4
# [10] = molecular target: T8, FGF-R1 (Homo sapiens, UniProt P11362); assay: FGF-R1 protein kinase assay; type: biochemical; conditions: for remaining activity at 10 µM: 10 μM compound; for residual kinase activity FGF-R1: 1 μm compound
# T8 construct: All protein kinases were of human origin and encoded full length proteins, unless indicated otherwise; made in house
# Text: as §1, §2, §3, §4
# [11] = molecular target: T9, MST4 (Homo sapiens, UniProt Q9P289); assay: MST4 protein kinase assay; type: biochemical; conditions: for remaining activity at 10 µM: 10 μM compound; for residual kinase activity MST4: 1 μm compound
# T9 construct: All protein kinases were of human origin and encoded full length proteins, unless indicated otherwise; made in house
# Text: as §1, §2, §3, §4
# [12] = system: IGF-1R; assay: IGF-1R protein kinase assay; type: biochemical, human; conditions: for residual kinase activity: IGF-1R
# Text: as §1, §2, §3, §4
# [13] = read-out: residual kinase activity PRAK
# [14] = read-out: residual kinase activity CAMKKb
# [15] = read-out: residual kinase activity CAMK1
# [16] = read-out: residual kinase activity PLK1
# [17] = read-out: residual kinase activity NEK2a
# [18] = read-out: residual kinase activity NEK6
# [19] = read-out: residual kinase activity Src
# [20] = read-out: residual kinase activity FGF-R1
# [21] = read-out: residual kinase activity MST4
# T9 sequence (Q9P289 whole entry): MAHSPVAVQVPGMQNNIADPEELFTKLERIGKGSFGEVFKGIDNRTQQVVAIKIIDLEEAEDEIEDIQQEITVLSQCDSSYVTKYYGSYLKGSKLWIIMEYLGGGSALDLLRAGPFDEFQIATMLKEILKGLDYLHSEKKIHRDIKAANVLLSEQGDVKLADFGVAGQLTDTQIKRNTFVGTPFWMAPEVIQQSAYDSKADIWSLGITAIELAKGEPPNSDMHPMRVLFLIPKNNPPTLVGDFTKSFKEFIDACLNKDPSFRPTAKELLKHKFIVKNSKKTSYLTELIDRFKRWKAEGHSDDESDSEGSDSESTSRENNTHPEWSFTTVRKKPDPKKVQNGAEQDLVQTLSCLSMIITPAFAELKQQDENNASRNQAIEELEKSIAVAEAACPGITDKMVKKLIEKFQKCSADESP
# T8 sequence (P11362 400-820 limits assumed): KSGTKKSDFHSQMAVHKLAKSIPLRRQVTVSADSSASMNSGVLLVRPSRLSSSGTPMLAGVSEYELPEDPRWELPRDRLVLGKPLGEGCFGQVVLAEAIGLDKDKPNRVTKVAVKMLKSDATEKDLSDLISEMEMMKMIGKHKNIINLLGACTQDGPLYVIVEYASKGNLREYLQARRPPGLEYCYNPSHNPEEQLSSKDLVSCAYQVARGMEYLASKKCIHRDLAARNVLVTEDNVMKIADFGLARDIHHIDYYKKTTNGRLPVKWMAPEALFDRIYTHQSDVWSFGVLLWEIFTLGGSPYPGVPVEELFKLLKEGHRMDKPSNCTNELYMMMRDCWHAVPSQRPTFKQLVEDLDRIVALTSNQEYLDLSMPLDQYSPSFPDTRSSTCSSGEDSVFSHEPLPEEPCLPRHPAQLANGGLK
# T2 sequence (Q96RR4 whole entry): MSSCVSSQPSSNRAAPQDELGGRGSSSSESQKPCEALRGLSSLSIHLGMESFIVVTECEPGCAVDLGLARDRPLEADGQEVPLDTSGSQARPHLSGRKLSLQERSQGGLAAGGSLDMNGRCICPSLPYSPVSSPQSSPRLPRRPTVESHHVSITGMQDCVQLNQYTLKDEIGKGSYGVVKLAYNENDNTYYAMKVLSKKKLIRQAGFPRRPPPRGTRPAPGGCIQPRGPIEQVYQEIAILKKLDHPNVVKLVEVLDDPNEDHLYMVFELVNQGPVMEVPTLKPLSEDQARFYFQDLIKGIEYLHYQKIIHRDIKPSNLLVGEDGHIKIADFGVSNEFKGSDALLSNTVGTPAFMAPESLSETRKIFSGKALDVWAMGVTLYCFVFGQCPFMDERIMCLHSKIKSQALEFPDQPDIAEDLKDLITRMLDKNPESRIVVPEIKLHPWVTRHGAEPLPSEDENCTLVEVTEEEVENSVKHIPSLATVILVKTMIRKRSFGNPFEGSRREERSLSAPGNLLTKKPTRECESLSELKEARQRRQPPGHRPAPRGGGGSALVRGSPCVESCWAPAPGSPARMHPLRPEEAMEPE
# T6 sequence (Q9HC98 whole entry): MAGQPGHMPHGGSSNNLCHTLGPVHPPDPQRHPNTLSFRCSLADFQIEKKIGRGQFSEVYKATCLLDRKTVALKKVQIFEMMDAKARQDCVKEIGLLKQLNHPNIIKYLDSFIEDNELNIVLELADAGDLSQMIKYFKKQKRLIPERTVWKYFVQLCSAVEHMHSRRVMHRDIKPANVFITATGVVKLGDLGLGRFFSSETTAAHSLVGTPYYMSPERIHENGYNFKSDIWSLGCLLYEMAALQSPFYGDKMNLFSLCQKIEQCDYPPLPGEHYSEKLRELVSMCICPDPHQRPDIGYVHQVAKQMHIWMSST
# T3 sequence (Q14012 whole entry): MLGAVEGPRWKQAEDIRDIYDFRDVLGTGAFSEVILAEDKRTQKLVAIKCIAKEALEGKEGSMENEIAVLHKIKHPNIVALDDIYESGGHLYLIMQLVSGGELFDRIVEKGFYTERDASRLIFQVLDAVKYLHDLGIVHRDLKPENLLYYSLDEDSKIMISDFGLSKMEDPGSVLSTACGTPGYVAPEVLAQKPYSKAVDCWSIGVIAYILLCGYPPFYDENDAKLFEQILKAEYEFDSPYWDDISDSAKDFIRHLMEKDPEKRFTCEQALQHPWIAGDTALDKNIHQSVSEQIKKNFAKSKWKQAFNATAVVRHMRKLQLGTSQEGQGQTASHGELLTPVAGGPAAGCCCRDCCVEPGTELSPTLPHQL
# T4 sequence (P53350 whole entry): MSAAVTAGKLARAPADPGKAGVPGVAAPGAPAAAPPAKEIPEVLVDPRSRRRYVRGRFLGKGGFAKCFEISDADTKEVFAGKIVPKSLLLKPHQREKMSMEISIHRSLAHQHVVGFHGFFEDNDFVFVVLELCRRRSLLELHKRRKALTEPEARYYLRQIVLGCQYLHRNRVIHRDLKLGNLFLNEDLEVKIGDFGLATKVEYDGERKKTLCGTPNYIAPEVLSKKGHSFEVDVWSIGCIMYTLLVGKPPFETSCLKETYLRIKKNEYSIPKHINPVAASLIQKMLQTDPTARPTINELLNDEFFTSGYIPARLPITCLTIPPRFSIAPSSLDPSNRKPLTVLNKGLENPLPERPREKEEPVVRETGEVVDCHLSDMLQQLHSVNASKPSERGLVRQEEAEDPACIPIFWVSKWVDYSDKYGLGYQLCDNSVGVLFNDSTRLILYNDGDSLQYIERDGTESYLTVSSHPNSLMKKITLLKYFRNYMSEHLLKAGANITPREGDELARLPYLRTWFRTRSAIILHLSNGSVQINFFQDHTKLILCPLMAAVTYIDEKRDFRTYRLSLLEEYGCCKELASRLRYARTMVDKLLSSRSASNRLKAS
# T7 sequence (P12931 whole entry): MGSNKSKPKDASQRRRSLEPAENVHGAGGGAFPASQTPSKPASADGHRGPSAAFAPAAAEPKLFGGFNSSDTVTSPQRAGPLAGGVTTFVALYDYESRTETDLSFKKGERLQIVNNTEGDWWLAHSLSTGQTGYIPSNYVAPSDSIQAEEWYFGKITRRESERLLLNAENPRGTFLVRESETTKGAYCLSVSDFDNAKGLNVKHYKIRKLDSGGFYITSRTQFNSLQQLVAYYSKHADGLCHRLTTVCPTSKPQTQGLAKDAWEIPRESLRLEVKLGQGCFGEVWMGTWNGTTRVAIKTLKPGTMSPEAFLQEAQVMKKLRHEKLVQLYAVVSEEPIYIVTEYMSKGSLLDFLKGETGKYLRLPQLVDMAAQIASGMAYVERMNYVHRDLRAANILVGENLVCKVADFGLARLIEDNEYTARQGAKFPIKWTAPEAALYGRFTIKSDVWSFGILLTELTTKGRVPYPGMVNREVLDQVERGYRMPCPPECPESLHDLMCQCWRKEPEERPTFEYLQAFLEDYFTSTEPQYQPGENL
smiles,measurement,setting,value
"O=C(NCCCNc1nc(Nc2cccc(F)c2)ncc1Br)C1CCC1 [Compound A, cyclobutanecarboxylic acid {3-[5-bromo-2-(3-fluoro-phenylamino)-pyrimidin-4-ylamino]-propyl}-amide, reference compound]",remaining activity at 10 µM,[1]; [13],31%
same,residual kinase activity PRAK,[1],65%
same,remaining activity at 10 µM,[2]; [14],22%
same,residual kinase activity CAMKKb,[2],27%
same,remaining activity at 10 µM,[3]; [15],25%
same,residual kinase activity CAMK1,[3],54%
same,remaining activity at 10 µM,[4]; [16],45%
same,residual kinase activity PLK1,[4],82%
same,residual kinase activity AMPK,[5]; 10 μM compound,2%
same,residual kinase activity AMPK,[5]; 1 μm compound,4%
same,residual kinase activity CK1,[6]; 10 μM compound,50%
same,residual kinase activity CK1,[6]; 1 μm compound,91%
same,remaining activity at 10 µM,[7]; [17],57%
same,residual kinase activity NEK2a,[7],95%
same,remaining activity at 10 µM,[8]; [18],93%
same,residual kinase activity NEK6,[8],88%
same,remaining activity at 10 µM,[9]; [19],12%
same,residual kinase activity Src,[9],53%
same,remaining activity at 10 µM,[10]; [20],1%
same,residual kinase activity FGF-R1,[10],17%
same,remaining activity at 10 µM,[11]; [21],47%
same,residual kinase activity MST4,[11],90%
same,residual kinase activity IGF-1R,[12]; 10 μM compound,21%
same,residual kinase activity IGF-1R,[12]; 1 μm compound,78%
"O=C(NCCCNc1nc(Nc2cccc(F)c2)ncc1C1CC1)C1CCC1 [Example 23, Cyclobutanecarboxylic acid {3-[5-cyclopropyl-2-(3-fluoro-phenylamino)-pyrimidin-4-ylamino]-propyl}-amide]",remaining activity at 10 µM,[1]; [13],96%
same,residual kinase activity PRAK,[1],93%
same,remaining activity at 1 µM,"[1]; PRAK, 1 μM compound, read-out: residual kinase activity",93%
same,remaining activity at 10 µM,"[1]; PRAK, read-out: residual kinase activity",96%
same,remaining activity at 10 µM,[2]; [14],8%
same,residual kinase activity CAMKKb,[2],43%
same,remaining activity at 1 µM,"[2]; CAMKKb, 1 μM compound, read-out: residual kinase activity",43%
same,remaining activity at 10 µM,"[2]; CAMKKb, read-out: residual kinase activity",8%
same,remaining activity at 10 µM,[3]; [15],66%
same,residual kinase activity CAMK1,[3],77%
same,remaining activity at 1 µM,"[3]; CAMK1, 1 μM compound, read-out: residual kinase activity",77%
same,remaining activity at 10 µM,"[3]; CAMK1, read-out: residual kinase activity",66%
same,remaining activity at 10 µM,[4]; [16],62%
same,residual kinase activity PLK1,[4],90%
same,remaining activity at 1 µM,"[4]; PLK1, 1 μM compound, read-out: residual kinase activity",90%
same,remaining activity at 10 µM,"[4]; PLK1, read-out: residual kinase activity",62%
same,residual kinase activity AMPK,[5]; 10 μM compound,8%
same,residual kinase activity AMPK,[5]; 1 μm compound,45%
same,residual kinase activity,[5]; 1 μM compound,45%
same,residual kinase activity,[5]; 10 μM compound,8%
same,residual kinase activity CK1,[6]; 10 μM compound,64%
same,residual kinase activity CK1,[6]; 1 μm compound,93%
same,residual kinase activity,[6]; 1 μM compound,93%
same,residual kinase activity,[6]; 10 μM compound,64%
same,remaining activity at 10 µM,[7]; [17],65%
same,residual kinase activity NEK2a,[7],91%
same,remaining activity at 1 µM,"[7]; NEK2a, 1 μM compound, read-out: residual kinase activity",91%
same,remaining activity at 10 µM,"[7]; NEK2a, read-out: residual kinase activity",65%
same,remaining activity at 10 µM,[8]; [18],83%
same,residual kinase activity NEK6,[8],88%
same,remaining activity at 1 µM,"[8]; NEK6, 1 μM compound, read-out: residual kinase activity",88%
same,remaining activity at 10 µM,"[8]; NEK6, read-out: residual kinase activity",83%
same,remaining activity at 10 µM,[9]; [19],50%
same,residual kinase activity Src,[9],77%
same,remaining activity at 1 µM,"[9]; Src, 1 μM compound, read-out: residual kinase activity",77%
same,remaining activity at 10 µM,"[9]; Src, read-out: residual kinase activity",50%
same,remaining activity at 10 µM,[10]; [20],36%
same,residual kinase activity FGF-R1,[10],89%
same,remaining activity at 1 µM,"[10]; FGF-R1, 1 μM compound, read-out: residual kinase activity",89%
same,remaining activity at 10 µM,"[10]; FGF-R1, read-out: residual kinase activity",36%
same,remaining activity at 10 µM,[11]; [21],56%
same,residual kinase activity MST4,[11],94%
same,remaining activity at 1 µM,"[11]; MST4, 1 μM compound, read-out: residual kinase activity",94%
same,remaining activity at 10 µM,"[11]; MST4, read-out: residual kinase activity",56%
same,residual kinase activity IGF-1R,[12]; 10 μM compound,87%
same,residual kinase activity IGF-1R,[12]; 1 μm compound,86%
same,residual kinase activity,[12]; 1 μM compound,86%
same,residual kinase activity,[12]; 10 μM compound,87%
